We go through three compounds from patent US8895504B2, “Amylin derivatives” (priority 2008, dated 2014).

By half-life is commonly meant the time needed for the level to fall by half in the phase considered. A lower half-life goes with rapid decline.

One data set deals with food intake. The data set is described as follows: Pharmacological Assay (I) - efficacy testing on appetite, ad libitum fed rat model. Format: in vivo, Sprague Dawley (SD) rats. Conditions: 30 nmol/kg vs vehicle, ad libitum fed rats, n=5-7, 0-48 hours. The source says: Assays Pharmacological Assay (I)—Experimental Protocol for Efficacy Testing on Appetite with an Amylin Derivative, Using an Ad Libitum Fed Rat Model. Sprague Dawley (SD) rats from Taconic Europe, Denmark are used for the experiments. The rats have a body weight 200-250 g at the start of experiment. The rats arrive at least 10-14 days before start of experiment to allow acclimatization to experimental settings. During this period the animals are handled at least 2 times. After arrival rats are housed individually for one week in a reversed light/dark phase (meaning that lights are off during daytime and on during nighttime) for two weeks. Since rats are normally active and eat their major part of their daily food intake during the dark period, rats are dosed in the morning right before lights are turned off. This set-up results in the lowest data variation and highest test sensitivity. The experiment is conducted in the rats' home cages and rats have free access to food and water throughout the acclimatization period and the experiment period. Each dose of derivative is tested in a group of 5-8 rats. A vehicle group of 6-8 rats is included in each set of testing. Rats are dosed once according to body weight with a 0.01-3 mg/kg solution administered intraperitoneally (ip), orally (po) or subcutaneously (sc). The time of dosing is recorded for each group. After dosing, the rats are returned to their home cages, where they then have access to food and water. The food consumption is recorded individually continuously by on-line registration or manually every hour for 7 hours, and then after 24 h and sometimes 48 h. At the end of the experimental session, the animals are euthanized. The individual data are recorded in Microsoft excel sheets. Outliers are excluded after applying the Grubbs statistical evaluation test for outliers, and the result is presented graphically using the GraphPad Prism program.

Data set [1] addresses T1, Amylin 3(a) receptor (human calcitonin receptor (CTa) and RAMP-3) (Homo sapiens, UniProt O60896+P30988).
T1 construct: expressed in transfected cells; host or cells: BHK570 cells, stably transfected with a CRE-luciferase reporter
The data set is described as follows: Luciferase assay (III), BHK Amylin 3(a)//CRE-luc cells. Conditions: BHK cells with Amylin 3(a) receptor and CRE luciferase reporter, 4 hours incubation; read-out: Potency Luciferase. It is filed as cell-based. The procedure, abridged:
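Read-out is CRE-driven luciferase luminescence, taken 30 min after LucLite addition at room temperature. Compounds were incubated 4 h at 37° C in assay medium (10% FBS, 10 mM Hepes, pH 7,4). The cell line is BHK570 co-transfected with human calcitonin receptor CTa and RAMP-3, seeded overnight before use.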
A general note: In a reporter assay the amount or activity of a reporter protein is the signal.

The nature of data set [2]: Assay (V) PK - determination of T½ in mini-pig. It is filed as in vivo. Conditions: minipig, sc; terminal plasma half-life, subcutaneous, approx 2 nmol/kg, male Göttingen mini-pigs. How it is done: Assay (V) PK—Determination OF T½ in Mini-Pig
T½ is the terminal half-life=ln 2/λz of a compound in plasma. λz is the first order rate constant associated with the terminal (log-linear) portion of the plasma concentration-time curve and is estimated by linear regression of time vs. log concentration.
T½ values of the amylin analogues of the invention is determined by pharmacokinetic studies in male Göttingen mini-pigs from Ellegaard Göttingen Minipigs ApS and the principles of laboratory animal care are followed.
An acclimatization period of approximately 6-10 days was allowed before the animals entered the study. At start of the acclimatization period the mini-pigs were about 5 to 12 months old and in the weight range of 7-35 kg. The mini-pigs had two central venous catheters inserted which were used for blood sampling.
The studies were conducted in an animal room which was illuminated to give a cycle of approx 12 hours light and 12 hours darkness. The animals were housed individually.
The animals had free access to domestic quality drinking water during the study, but were typically fasted from overnight before dosing until approx 6-12 hours after dosing. The animals were weighed on arrival and on the days of dosing.
In the present studies the test substances were administered subcutaneously in approx 2 nmol/kg dose. The animals received a single subcutaneous injection. The subcutaneous injection was given on the right side of the neck, approximately 5-7 cm from the ear and 7-9 cm from the middle of the neck. The injections were given with a stopper on the needle, allowing approx 0.5 cm of the needle to be introduced. Each test substance was given to typically three but in some cases two or four animals.
A full plasma concentration-time profile, employing 12-16 sampling points, was obtained from each animal. In example blood samples were collected according to the following schedule:
After subcutaneous administration:
Predose (0), 0.5, 1, 2, 4, 6, 8, 12, 24, 48, 72, 96, 120, 168 and 240 hours after injection. In some cases also additional blood samples up to 288 hours post injection were taken.
At each sampling time, 0.5 to 2 ml of blood was drawn from each animal. The blood samples were taken via the central venous catheter.
The blood samples were collected into EDTA test tubes (i.e. Sarstedt Micro tube 1.3 mL K3E). Blood samples were kept on ice for max 20 min. before centrifugation. Plasma was separated using centrifugation (i.e. at 4° C., 10 min., 1500 G) and was immediately transferred to Micronic tubes. Approximately 200 μl plasma was transferred to each Micronic tube. The plasma was stored at −20° C. until assayed. The plasma samples were assayed for the content of amylin using an ELISA assay.
The plasma concentration-time profiles were analysed by a non-compartmental pharmacokinetic analysis (NCA) using WinNonlin Professional 5.0 (Pharsight Inc., Mountain View, Calif., USA). NCA was performed using the individual plasma concentration-time profiles from each animal. T½ is the terminal half-life=ln 2/λz and was determined from λz, the first order rate constant associated with the terminal (log-linear) portion of the curve, estimated by linear regression of time vs. log concentration.
ELISA Plasma Assay for Amylin Quantification
The human amylin ELISA is a monoclonal antibody-based sandwich immunoassay for determining amylin levels in human plasma. The capture antibody recognizes human amylin, amylin acid (deamidated amylin), a 1-20 fragment of amylin, but not reduced amylin.
The detection antibody binds to reduced or unreduced human amylin but not amylin acid and is complexed with streptavidin-alkaline phosphatase. The substrate, 4-methylumbelliferyl phosphate, is applied to the completed sandwich and the fluorescent signal, monitored at 355 nm/460 nm, is proportional to the amount of amylin present in the sample.

Structures are written as SMILES. *1 amine or outer side, *2 acyl side, *3 side chain or, on linkers, in order; H or OH if unused. Where a SMILES comes first, the peptide text is derived from it. Bridges are numbered along the chain shown (N, C = ends). Side-chain parts run from the residue outwards. The star is where a group is joined. C20 diacid = O=C(O)CCCCCCCCCCCCCCCCCCC(=O)*; γGlu = O=C(O)[C@H](CCC(=O)[*:2])N[*:1]; AEEA = NCCOCCOCC(=O)O

T1 sequence (O60896 24-148): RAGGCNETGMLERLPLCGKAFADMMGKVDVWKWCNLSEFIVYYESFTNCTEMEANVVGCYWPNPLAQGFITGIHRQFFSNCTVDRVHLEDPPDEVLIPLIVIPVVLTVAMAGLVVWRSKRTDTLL
T1 sequence (P30988 25-474): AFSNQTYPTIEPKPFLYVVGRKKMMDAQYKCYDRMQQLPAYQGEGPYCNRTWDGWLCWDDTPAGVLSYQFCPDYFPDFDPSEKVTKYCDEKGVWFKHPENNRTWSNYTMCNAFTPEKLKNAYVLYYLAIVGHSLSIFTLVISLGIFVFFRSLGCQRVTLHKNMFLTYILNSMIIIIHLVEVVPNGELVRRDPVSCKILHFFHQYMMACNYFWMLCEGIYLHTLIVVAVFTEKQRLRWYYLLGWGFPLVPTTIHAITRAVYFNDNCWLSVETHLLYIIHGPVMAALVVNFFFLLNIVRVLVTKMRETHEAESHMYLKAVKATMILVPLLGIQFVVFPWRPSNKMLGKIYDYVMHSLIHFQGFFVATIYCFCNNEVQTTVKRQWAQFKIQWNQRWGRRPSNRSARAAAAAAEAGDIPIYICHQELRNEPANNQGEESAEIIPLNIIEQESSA

`CC[C@H](C)[C@H](NC(=O)[C@@H]1CCCN1C(=O)CNC(=O)[C@H](Cc1ccccc1)NC(=O)[C@H](CC(N)=O)NC(=O)[C@H](CC(=O)O)NC(=O)[C@H](CO)NC(=O)[C@H](CO)NC(=O)[C@H](Cc1c[nH]cn1)NC(=O)[C@H](Cc1c[nH]cn1)NC(=O)[C@H](CC(C)C)NC(=O)[C@H](Cc1ccccc1)NC(=O)[C@H](CC(N)=O)NC(=O)[C@H](C)NC(=O)[C@H](CC(C)C)NC(=O)[C@H](CCCNC(=N)N)NC(=O)[C@H](CCC(N)=O)NC(=O)[C@@H](NC(=O)[C@H](C)NC(=O)[C@@H]1CSSC[C@H](NC(=O)[C@@H](N)CCCCN)C(=O)N[C@@H](CCCCNC(=O)COCCOCCNC(=O)[C@H](CCC(=O)O)NC(=O)[C@H](CCC(=O)O)NC(=O)CCCCCCCCCCCCCCCCCCC(=O)O)C(=O)N[C@@H]([C@@H](C)O)C(=O)N[C@@H](C)C(=O)N[C@@H]([C@@H](C)O)C(=O)N1)[C@@H](C)O)C(=O)N[C@@H](CC(C)C)C(=O)N1CCC[C@H]1C(=O)N1CCC[C@H]1C(=O)N[C@H](C(=O)N[C@@H](CC(N)=O)C(=O)N[C@H](C(=O)NCC(=O)N[C@@H](CO)C(=O)N[C@@H](CC(N)=O)C(=O)N[C@H](C(=O)N[C@@H](Cc1ccc(O)cc1)C(N)=O)[C@@H](C)O)C(C)C)[C@@H](C)O` [Example 3, N-epsilon3-{2-[2-(2-{(S)-4-Carboxy-2-[(S)-4-carboxy-2-(19-carboxynonadecanoylamino)butyrylamino]butyrylamino}ethoxy)ethoxy]acetyl}-[Lys3,His17,Asp21]-pramlintide] (H-KCK([AEEA-Glu-Glu-C20 diacid])TATCATQRLANFLHHSSDNFGPILPPTNVGSNTY-NH2; disulfide 2-7): the “food intake over a period of 48 hours” value in the data set on food intake is recorded as “effectively reducing food intake”. The EC50 in data set [1] worked out at 0.4 nM.
For `CC[C@H](C)[C@H](NC(=O)[C@@H]1CCCN1C(=O)CNC(=O)[C@H](Cc1ccccc1)NC(=O)[C@H](CC(N)=O)NC(=O)[C@H](CC(N)=O)NC(=O)[C@H](CO)NC(=O)[C@H](CO)NC(=O)[C@H](Cc1c[nH]cn1)NC(=O)[C@H](Cc1c[nH]cn1)NC(=O)[C@H](CC(C)C)NC(=O)[C@H](Cc1ccccc1)NC(=O)[C@H](CC(N)=O)NC(=O)[C@H](C)NC(=O)[C@H](CC(C)C)NC(=O)[C@H](CCCNC(=N)N)NC(=O)[C@H](CCC(N)=O)NC(=O)[C@@H](NC(=O)[C@H](C)NC(=O)[C@@H]1CSSC[C@H](NC(=O)[C@H](Cc2c[nH]cn2)NC(=O)[C@H](Cc2c[nH]cn2)NC(=O)COCCOCCNC(=O)CC[C@H](NC(=O)CCCCCCCCCCCCCCCCCCC(=O)O)C(=O)O)C(=O)N[C@@H](CC(N)=O)C(=O)N[C@@H]([C@@H](C)O)C(=O)N[C@@H](C)C(=O)N[C@@H]([C@@H](C)O)C(=O)N1)[C@@H](C)O)C(=O)N[C@@H](CC(C)C)C(=O)N1CCC[C@H]1C(=O)N1CCC[C@H]1C(=O)N[C@H](C(=O)N[C@@H](CC(N)=O)C(=O)N[C@H](C(=O)NCC(=O)N[C@@H](CO)C(=O)N[C@@H](CC(N)=O)C(=O)N[C@H](C(=O)N[C@@H](Cc1ccc(O)cc1)C(N)=O)[C@@H](C)O)C(C)C)[C@@H](C)O` [Example 38, N-alpha-[2-(2-{2-[4-(S)-Carboxy-4-(19-carboxynonadecanoylamino)butyrylamino]ethoxy}ethoxy)acetyl]-His-[His1,His17]-pramlintide] ({C20 diacid-γGlu-AEEA}-HHCNTATCATQRLANFLHHSSNNFGPILPPTNVGSNTY-NH2; disulfide 3-8), in that order: “effectively reducing food intake” and 0.1 nM.
For the compound `CC[C@H](C)[C@H](NC(=O)[C@@H]1CCCN1C(=O)CNC(=O)[C@H](Cc1ccccc1)NC(=O)[C@H](CC(N)=O)NC(=O)[C@H](CC(N)=O)NC(=O)[C@H](CO)NC(=O)[C@H](CO)NC(=O)[C@H](Cc1c[nH]cn1)NC(=O)[C@H](Cc1c[nH]cn1)NC(=O)[C@H](CC(C)C)NC(=O)[C@H](Cc1ccccc1)NC(=O)[C@H](CC(N)=O)NC(=O)[C@H](C)NC(=O)[C@H](CC(C)C)NC(=O)[C@H](CCCNC(=N)N)NC(=O)[C@H](CCC(N)=O)NC(=O)[C@@H](NC(=O)[C@H](C)NC(=O)[C@@H]1CSSC[C@H](NC(=O)[C@H](CCCNC(=N)N)NC(=O)[C@H](Cc2c[nH]cn2)NC(=O)[C@H](Cc2c[nH]cn2)NC(=O)COCCOCCNC(=O)CC[C@H](NC(=O)CCCCCCCCCCCCCCCCCCC(=O)O)C(=O)O)C(=O)N[C@@H](CC(N)=O)C(=O)N[C@@H]([C@@H](C)O)C(=O)N[C@@H](C)C(=O)N[C@@H]([C@@H](C)O)C(=O)N1)[C@@H](C)O)C(=O)N[C@@H](CC(C)C)C(=O)N1CCC[C@H]1C(=O)N1CCC[C@H]1C(=O)N[C@H](C(=O)N[C@@H](CC(N)=O)C(=O)N[C@H](C(=O)NCC(=O)N[C@@H](CO)C(=O)N[C@@H](CC(N)=O)C(=O)N[C@H](C(=O)N[C@@H](Cc1ccc(O)cc1)C(N)=O)[C@@H](C)O)C(C)C)[C@@H](C)O` [Example 56, N-alpha-[2-(2-{2-[4-(S)-Carboxy-4-(19-carboxynonadecanoylamino)butyrylamino]ethoxy}ethoxy)acetyl]-His-His-[Arg1,His17]-pramlintide] ({C20 diacid-γGlu-AEEA}-HHRCNTATCATQRLANFLHHSSNNFGPILPPTNVGSNTY-NH2; disulfide 4-9), the half-life in data set [2] was 1860 min. For the same compound, the EC50 in data set [1] was 0.09 nM.
